These results are taken from patent US6747039B2, “Aza-benzothiopyranoindazoles with antitumor activity” (Albany Molecular Research, Inc., priority 2002, dated 2004).

Where two headings read alike, the source gives them in different places.

The experiment has as its system HeLa S-3 cells. In words: Inhibition of cell growth (sulforhodamine B) to determine GI50. The format is cell-based. To be noted: Homo sapiens, HeLa S3; for IC50: HeLa cells; for GI50: Table 6, comparison of nitrogen position. How it is done: Growth inhibition (GI50) values were measured with HeLa S-3 cells selected for growth on plastic. The procedure was based on the protocol of Skehan et al. (Skehan, P., et al., J. Natl. Cancer Inst., 82:1107-1112 (1990), which is hereby incorporated by reference). HeLa cells were plated at 2×10^4 cells/well in 96 well plates. One day later, a control plate was fixed by addition of TCA to 5%. After five rinses with tap water, the plate was air dried and stored at 4° C. Test compounds were added to the remaining plates at 10-fold dilutions between 0.01 and 100 μM. Two days later, all plates were fixed as described above. Cells were then stained by the addition of 100 μl per well of 0.4% sulforhodamine B (SRB) in 1% acetic acid for 30 min at 4° C. Wells were then quickly rinsed 5× with acetic acid (1%) and allowed to air dry. The SRB was then solubilized by the addition of 100 μl per well of unbuffered 10 mM Tris base. Dye was quantified by measuring absorbance at 490 nm on a Molecular Devices kinetic microplate reader. Growth at each inhibitor concentration relative to the untreated control was calculated according to the following equation: percent growth=100×(T−To)/(C−To), where T was the average optical density (OD) of the test wells after 2 days of treatment, To was the average OD of the wells in the control plate on day 0 and C was the average OD of untreated wells. Plots of percent growth versus inhibitor concentration were used to determine the GI50.
The data below shown in Table 4 summarizes the in vitro cyclin/cdk inhibition constants (IC50) of HeLa Cells for the compounds of the current invention.

Setting [1] is: Table 5, aza-analogs, read-out: IC50 (aza-analogs).
Where [2] appears, read: Table 5, carbocyclic congeners, read-out: IC50 (carbocyclic congeners).

As usually defined, the IC50 is the concentration at which inhibition is half-maximal. For the compound `CCN(CC)CCNc1ccc(CN)c2sc3ccncc3c(=O)c12`, the IC50 under setting [1] came out at 700 nM.
Still for that read-out and setting: then `CCN(CC)CCn1nc2c3c(c(CNS(C)(=O)=O)ccc31)Sc1ncccc1-2` [drawing 122], with 300 nM.
In the case of `CCN(CC)CCn1nc2c3c(c(CNS(C)(=O)=O)ccc31)Sc1ccccc1-2` [reference compound], under setting [2], the half-maximal inhibitory concentration (IC50) came to 900 nM.
Regarding `CCN(CC)CCNc1cccc2sc3ccccc3c(=O)c12` [reference compound], the IC50 under setting [2] is over 10000 nM.
Regarding `CCN(CC)CCn1nc2c3c(c(CNC=O)ccc31)Sc1ccncc1-2` [drawing 114], the IC50 under setting [1] amounted to 200 nM.
The same measure, in the same setting: then `CCN(CC)CCNc1ccc(CNC=O)c2sc3ccncc3c(=O)c12`, with 1000 nM.
`CCN(CC)CCNc1ccc(CN)c2sc3ccccc3c(=O)c12` [reference compound]: the IC50 under setting [2] amounted to 600 nM.
The term GI50 denotes the concentration that inhibits growth by half. The compound `CCN(CC)CCn1nc2c3c(c(CNC(=O)OC)ccc31)Sc1ccncc1-2` [drawing 131] gave a GI50 (first compound of pair) of 100 nM.
For the compound `CCN(CC)CCn1nc2c3c(cccc31)Sc1ccccc1-2` [reference compound], the IC50 under setting [2] amounted to 9000 nM.
Regarding `CCN(CC)CCn1nc2c3c(c(CNC(=O)OC)ccc31)Sc1ccncc1-2` [drawing 116], the IC50 under setting [1] is 100 nM.
On to `CCN(CC)CCn1nc2c3c(c(CNS(C)(=O)=O)ccc31)Sc1ccncc1-2` [drawing 118], for which the IC50 under setting [1] worked out at 300 nM.
Same read-out and setting: the same measure for `CCN(CC)CCn1nc2c3c(c(CNC(=O)OC)ccc31)Sc1ncccc1-2` [drawing 120]: 500 nM.
Regarding `CCN(CC)CCn1nc2c3c(c(CN)ccc31)Sc1ncccc1-2` [drawing 128], the GI50 (second compound of pair) was 200 nM.
For the compound `CCN(CC)CCNc1cccc2sc3ccncc3c(=O)c12`, the IC50 under setting [1] amounted to 3000 nM.
In turn, `CCN(CC)CCn1nc2c3c(c(CNC=O)ccc31)Sc1ncccc1-2` [drawing 130] yielded a GI50 (second compound of pair) of 500 nM.
With `CCN(CC)CCNc1ccc(CNC=O)c2sc3ccccc3c(=O)c12` [reference compound], the IC50 under setting [2] was 3000 nM.
For the compound `CCN(CC)CCn1nc2c3c(c(CN)ccc31)Sc1ncccc1-2` [drawing 124], the IC50 under setting [1] is 200 nM.
On to `CCN(CC)CCn1nc2c3c(c(CN)ccc31)Sc1ccccc1-2` [reference compound], for which the IC50 under setting [2] worked out at 1000 nM.
On to `CCN(CC)CCn1nc2c3c(c(CN)ccc31)Sc1ccncc1-2` [drawing 127], for which growth (first compound of pair) was halved (GI50) at 200 nM.
`CCN(CC)CCn1nc2c3c(c(C)ccc31)Sc1ncccc1-2` came in with a GI50 (second compound of pair) of 600 nM.
`CCN(CC)CCn1nc2c3c(c(CNC=O)ccc31)Sc1ccccc1-2` [reference compound]: under setting [2], the IC50 stood at 1000 nM.
Regarding `CCN(CC)CCNc1ccc(CNC(=O)OC)c2sc3ccncc3c(=O)c12`, the IC50 under setting [1] amounted to 300 nM.
Turning to `CCN(CC)CCn1nc2c3c(c(CNC(=O)OC)ccc31)Sc1ncccc1-2` [drawing 132], where the note is “second compound of pair”, it took 500 nM to inhibit growth by half (GI50).
As to `CCN(CC)CCNc1ccc(C)c2sc3ccncc3c(=O)c12`, the GI50 (first compound of pair) stood at 400 nM.
Same read-out and setting: then `CCN(CC)CCn1nc2c3c(c(C)ccc31)Sc1ccncc1-2`, with 100 nM.
On to `CCN(CC)CCn1nc2c3c(c(CN)ccc31)Sc1ccncc1-2` [drawing 112], for which the IC50 under setting [1] was found to be 200 nM.
On the same count and under the same terms, then `CCN(CC)CCn1nc2c3c(c(CNC=O)ccc31)Sc1ncccc1-2` [drawing 126], with 500 nM.
For `CCN(CC)CCn1nc2c3c(c(CNS(C)(=O)=O)ccc31)Sc1ccncc1-2` [drawing 133], it took 200 nM to inhibit growth (first compound of pair) by half (GI50).
For the setting “second compound of pair”, `CCN(CC)CCn1nc2c3c(c(CNS(C)(=O)=O)ccc31)Sc1ncccc1-2` [drawing 134] gave a GI50 of 300 nM. This lies in the sub-micromolar range.
Consider `CCN(CC)CCn1nc2c3c(cccc31)Sc1ccncc1-2`, for which the IC50 under setting [1] is 1000 nM.
For `CCN(CC)CCNc1ccc(CNS(C)(=O)=O)c2sc3ccncc3c(=O)c12`, under setting [1], the IC50 stood at 400 nM.
With `CCN(CC)CCNc1ccc(C)c2sc3ncccc3c(=O)c12`, under “second compound of pair”, the GI50 turned out to be 3000 nM.
Consider `CCN(CC)CCn1nc2c3c(c(CNC=O)ccc31)Sc1ccncc1-2` [drawing 129], for which, where the note is “first compound of pair”, the GI50 came out at 50 nM.
For the compound `CCN(CC)CCn1nc2c3c(c(CNC(=O)OC)ccc31)Sc1ccccc1-2` [reference compound], the IC50 under setting [2] worked out at 3000 nM.
